From PubChem BioAssay (NCI)
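The compound was tested at five concentrations on cells cultured in 96-well plates, with a 48-hour exposure period. At the GI50, growth is halved. TGI is the concentration that stops growth completely.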

Key:
Assay in all cases: growth of human tumour cells (NCI), 48 h
786-0 renal = tested on: 786-0 renal
A498 renal = tested on: A498 renal
ACHN renal = tested on: ACHN renal
BT-549 breast = tested on: BT-549 breast
CAKI-1 renal = tested on: CAKI-1 renal
CCRF-CEM leukemia = tested on: CCRF-CEM leukemia
COLO 205 colon = tested on: COLO 205 colon
DU-145 prostate = tested on: DU-145 prostate
EKVX NSCLC = tested on: EKVX NSCLC
HCC-2998 colon = tested on: HCC-2998 colon
HCT-116 colon = tested on: HCT-116 colon
HCT-15 colon = tested on: HCT-15 colon
HL-60(TB) leukemia = tested on: HL-60(TB) leukemia
HOP-62 NSCLC = tested on: HOP-62 NSCLC
HOP-92 NSCLC = tested on: HOP-92 NSCLC
HS 578T breast = tested on: HS 578T breast
HT29 colon = tested on: HT29 colon
IGROV1 ovarian = tested on: IGROV1 ovarian
K-562 leukemia = tested on: K-562 leukemia
KM12 colon = tested on: KM12 colon
LOX IMVI melanoma = tested on: LOX IMVI melanoma
M14 melanoma = tested on: M14 melanoma
MALME-3M melanoma = tested on: MALME-3M melanoma
MCF7 breast = tested on: MCF7 breast
MDA-MB-231 breast = tested on: MDA-MB-231 breast
MDA-MB-435 = tested on: MDA-MB-435
MOLT-4 leukemia = tested on: MOLT-4 leukemia
NCI-H23 lung = tested on: NCI-H23 lung
NCI-H460 lung = tested on: NCI-H460 lung
NCI-H522 lung = tested on: NCI-H522 lung
NCI/ADR-RES ovarian = tested on: NCI/ADR-RES ovarian
OVCAR-4 ovarian = tested on: OVCAR-4 ovarian
OVCAR-5 ovarian = tested on: OVCAR-5 ovarian
OVCAR-8 ovarian = tested on: OVCAR-8 ovarian
PC-3 prostate = tested on: PC-3 prostate
RPMI-8226 leukemia = tested on: RPMI-8226 leukemia
RXF 393 renal = tested on: RXF 393 renal
SF-268 CNS = tested on: SF-268 CNS
SF-295 CNS = tested on: SF-295 CNS
SF-539 CNS = tested on: SF-539 CNS
SK-MEL-2 melanoma = tested on: SK-MEL-2 melanoma
SK-MEL-28 melanoma = tested on: SK-MEL-28 melanoma
SK-MEL-5 melanoma = tested on: SK-MEL-5 melanoma
SK-OV-3 ovarian = tested on: SK-OV-3 ovarian
SN12C renal = tested on: SN12C renal
SNB-19 CNS = tested on: SNB-19 CNS
SNB-75 CNS = tested on: SNB-75 CNS
SR leukemia = tested on: SR leukemia
SW-620 colon = tested on: SW-620 colon
T-47D breast = tested on: T-47D breast
TK-10 renal = tested on: TK-10 renal
U251 CNS = tested on: U251 CNS
UACC-257 melanoma = tested on: UACC-257 melanoma
UACC-62 melanoma = tested on: UACC-62 melanoma
UO-31 renal = tested on: UO-31 renal

Q: What does the source list for `COc1ccc2c(c1)c(CC(=O)[Se]CC#N)c(C)n2C(=O)c1ccc(Cl)cc1`?
A: GI50 (786-0 renal): 1.88 µM; TGI (786-0 renal): 3.61 µM; GI50 (A498 renal): 2.04 µM; TGI (A498 renal): 4.75 µM; GI50 (ACHN renal): 2.11 µM; TGI (ACHN renal): 5.61 µM; GI50 (BT-549 breast): 2.05 µM; TGI (BT-549 breast): 4.68 µM; GI50 (CAKI-1 renal): 1.78 µM; TGI (CAKI-1 renal): 3.53 µM; GI50 (CCRF-CEM leukemia): 2.6 µM; TGI (CCRF-CEM leukemia): > 100 µM; GI50 (COLO 205 colon): 1.59 µM; TGI (COLO 205 colon): 3.1 µM; GI50 (DU-145 prostate): 1.79 µM; TGI (DU-145 prostate): 3.48 µM; GI50 (EKVX NSCLC): 1.42 µM; TGI (EKVX NSCLC): 3.45 µM; GI50 (HCC-2998 colon): 1.79 µM; TGI (HCC-2998 colon): 3.5 µM; GI50 (HCT-116 colon): 0.359 µM; TGI (HCT-116 colon): 1.27 µM; GI50 (HCT-15 colon): 1.2 µM; TGI (HCT-15 colon): 3 µM; GI50 (HL-60(TB) leukemia): 2.95 µM; TGI (HL-60(TB) leukemia): > 100 µM; GI50 (HOP-62 NSCLC): 1.11 µM; TGI (HOP-62 NSCLC): 3.2 µM; GI50 (HOP-92 NSCLC): 1.75 µM; TGI (HOP-92 NSCLC): 4.7 µM; GI50 (HS 578T breast): 2.62 µM; TGI (HS 578T breast): 8.91 µM; GI50 (HT29 colon): 2.01 µM; TGI (HT29 colon): 5.03 µM; GI50 (IGROV1 ovarian): 1.7 µM; TGI (IGROV1 ovarian): 3.82 µM; GI50 (K-562 leukemia): 3.17 µM; TGI (K-562 leukemia): > 100 µM; GI50 (KM12 colon): 1.46 µM; TGI (KM12 colon): 3.16 µM; GI50 (LOX IMVI melanoma): 1.91 µM; TGI (LOX IMVI melanoma): 4.12 µM; GI50 (M14 melanoma): 1.43 µM; TGI (M14 melanoma): 3.02 µM; GI50 (MALME-3M melanoma): 1.94 µM; TGI (MALME-3M melanoma): 5.21 µM; GI50 (MCF7 breast): 2.02 µM; TGI (MCF7 breast): 4.9 µM; GI50 (MDA-MB-231 breast): 2.2 µM; TGI (MDA-MB-231 breast): 6.6 µM; GI50 (MDA-MB-435): 1.79 µM; TGI (MDA-MB-435): 3.44 µM; GI50 (MOLT-4 leukemia): 3.37 µM; TGI (MOLT-4 leukemia): > 100 µM; GI50 (NCI-H23 lung): 2.36 µM; TGI (NCI-H23 lung): 6.19 µM; GI50 (NCI-H460 lung): 1.97 µM; TGI (NCI-H460 lung): 5.47 µM; GI50 (NCI-H522 lung): 2.07 µM; TGI (NCI-H522 lung): 4.52 µM; GI50 (NCI/ADR-RES ovarian): 2.42 µM; TGI (NCI/ADR-RES ovarian): 6.97 µM; GI50 (OVCAR-4 ovarian): 2.18 µM; TGI (OVCAR-4 ovarian): 5.82 µM; GI50 (OVCAR-5 ovarian): 1.92 µM; TGI (OVCAR-5 ovarian): 4.03 µM; GI50 (OVCAR-8 ovarian): 1.86 µM; TGI (OVCAR-8 ovarian): 3.86 µM; GI50 (PC-3 prostate): 2.26 µM; TGI (PC-3 prostate): 7.88 µM; GI50 (RPMI-8226 leukemia): 3.04 µM; TGI (RPMI-8226 leukemia): 10.6 µM; GI50 (RXF 393 renal): 1.65 µM; TGI (RXF 393 renal): 3.37 µM; GI50 (SF-268 CNS): 2.28 µM; TGI (SF-268 CNS): 5.43 µM; GI50 (SF-295 CNS): 1.72 µM; TGI (SF-295 CNS): 4.2 µM; GI50 (SF-539 CNS): 2.04 µM; TGI (SF-539 CNS): 4.43 µM; GI50 (SK-MEL-2 melanoma): 1.99 µM; TGI (SK-MEL-2 melanoma): 4.5 µM; GI50 (SK-MEL-28 melanoma): 2.38 µM; TGI (SK-MEL-28 melanoma): 6.92 µM; GI50 (SK-MEL-5 melanoma): 1.78 µM; TGI (SK-MEL-5 melanoma): 3.23 µM; GI50 (SK-OV-3 ovarian): 2.77 µM; TGI (SK-OV-3 ovarian): 8.16 µM; GI50 (SN12C renal): 3.62 µM; TGI (SN12C renal): 12.7 µM; GI50 (SNB-19 CNS): 3.81 µM; TGI (SNB-19 CNS): 14.6 µM; GI50 (SNB-75 CNS): 1.91 µM; TGI (SNB-75 CNS): 5.75 µM; GI50 (SR leukemia): 2.27 µM; TGI (SR leukemia): > 100 µM; GI50 (SW-620 colon): 1.73 µM; TGI (SW-620 colon): 3.99 µM; GI50 (T-47D breast): 2.29 µM; TGI (T-47D breast): 6.15 µM; GI50 (TK-10 renal): 2.66 µM; TGI (TK-10 renal): 7.09 µM; GI50 (U251 CNS): 2.29 µM; TGI (U251 CNS): 6.35 µM; GI50 (UACC-257 melanoma): 2.1 µM; TGI (UACC-257 melanoma): 5.19 µM; GI50 (UACC-62 melanoma): 2.16 µM; TGI (UACC-62 melanoma): 5.56 µM; GI50 (UO-31 renal): 1.18 µM; TGI (UO-31 renal): 3.94 µM
